According to patent US10919896B2, “Preparation and uses of pyrimidinone derivatives” (Cancer Research Technology Limited, priority 2016, dated 2021):
Counter-ions that a name gives are not always drawn. Like-named read-outs stand apart in the source and are kept apart here.

Legend:
Cdc7/ASK = Cdc7/ASK (Homo sapiens, UniProt O00311); assay: Cdc7 Biochemical Assay Method 4: off-chip mobility shift assay (Carna Biosciences); design: purchased Carna Biosciences; host or cells: baculovirus expression system; details: off-chip MSA, MCM2 peptide, 5 hours; read-out: Biochemical Method 4 (pIC50) (converted)
Chain of Cdc7/ASK (O00311 whole entry): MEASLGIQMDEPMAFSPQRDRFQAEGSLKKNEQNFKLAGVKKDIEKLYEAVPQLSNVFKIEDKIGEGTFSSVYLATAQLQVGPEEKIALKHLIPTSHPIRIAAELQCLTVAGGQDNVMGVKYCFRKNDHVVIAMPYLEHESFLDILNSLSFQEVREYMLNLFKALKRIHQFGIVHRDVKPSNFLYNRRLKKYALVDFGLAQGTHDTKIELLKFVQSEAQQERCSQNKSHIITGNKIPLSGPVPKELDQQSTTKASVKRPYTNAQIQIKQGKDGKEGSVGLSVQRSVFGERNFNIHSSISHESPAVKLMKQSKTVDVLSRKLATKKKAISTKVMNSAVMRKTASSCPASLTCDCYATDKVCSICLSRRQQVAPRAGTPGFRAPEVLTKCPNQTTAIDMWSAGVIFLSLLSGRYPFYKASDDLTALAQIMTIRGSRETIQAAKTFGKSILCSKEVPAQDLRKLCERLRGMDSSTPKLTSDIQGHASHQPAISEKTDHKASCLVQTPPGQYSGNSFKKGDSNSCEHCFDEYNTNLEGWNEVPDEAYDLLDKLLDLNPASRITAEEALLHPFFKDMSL
Chain of Cdc7/ASK (Q9UBU7 whole entry partner): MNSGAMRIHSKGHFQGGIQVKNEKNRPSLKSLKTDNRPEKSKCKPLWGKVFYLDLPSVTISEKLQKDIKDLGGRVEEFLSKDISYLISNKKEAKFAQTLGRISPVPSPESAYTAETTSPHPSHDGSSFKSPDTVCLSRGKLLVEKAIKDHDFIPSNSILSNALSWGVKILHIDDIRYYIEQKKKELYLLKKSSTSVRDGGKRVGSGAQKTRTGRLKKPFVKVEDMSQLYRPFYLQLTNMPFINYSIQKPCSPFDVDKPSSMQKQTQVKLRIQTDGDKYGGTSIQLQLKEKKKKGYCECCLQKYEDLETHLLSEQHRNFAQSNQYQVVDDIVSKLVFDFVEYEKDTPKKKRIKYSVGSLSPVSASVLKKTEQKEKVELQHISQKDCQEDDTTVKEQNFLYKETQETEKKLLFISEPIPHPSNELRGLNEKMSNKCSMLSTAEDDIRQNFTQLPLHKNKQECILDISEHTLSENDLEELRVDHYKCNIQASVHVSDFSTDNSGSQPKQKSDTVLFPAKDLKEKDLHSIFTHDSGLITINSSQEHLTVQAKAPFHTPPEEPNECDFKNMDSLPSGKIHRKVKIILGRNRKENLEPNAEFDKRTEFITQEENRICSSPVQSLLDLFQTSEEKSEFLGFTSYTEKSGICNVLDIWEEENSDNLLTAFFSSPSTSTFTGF
Method: This protocol describes a method for assaying Cdc7/ASK for activity. The assay is an off-chip mobility shift assay (MSA) run at Carna Biosciences.
1. Preparation of Test Compound Solution.
The test compound was dissolved in and diluted with dimethylsulfoxide (DMSO) to achieve 100-fold higher concentration which was specified by the sponsor. Then the solution was further 25-fold diluted with assay buffer to make the final test compound solution. Reference compounds for assay control were prepared similarly.
Cdc7/ASK: Full-length human Cdc7 [1-574(end) amino acids of accession number NP_003494.1] was co-expressed as N-terminal GST-fusion protein (92 kDa) with Dbf4(ASK) [1-674(end) amino acids of accession number NP_006707.1] using baculovirus expression system. GST-Cdc7 was purified by using glutathione sepharose chromatography.
3. Assay Reagents and Procedures
Off-chip Mobility Shift Assay (MSA)
1) The […] of ×2 kinase solution were prepared with assay buffer (20 mM HEPES, 0.01% Triton X-100, 1 mM DTT, pH 7.5) and mixed and incubated in a well of polypropylene 384 well microplate for 5 hours at room temperature. 2) […] of Termination Buffer (QuickScout Screening Assist MSA; Carna Biosciences) was added to the well. 3) The reaction mixture was applied to LabChip system (Perkin Elmer), and the product and substrate peptide peaks were separated and quantitated. 4) The kinase reaction was evaluated by the product ratio calculated from peak heights of product (P) and substrate (S) peptides (P/(P+S)).
Reaction time is 5 hours.
The readout value of reaction control (complete reaction mixture) was set as a 0% inhibition, and the readout value of background (Enzyme(−)) was set as a 100% inhibition, then the percent inhibition of each test solution was calculated.
IC50 value was calculated from concentration vs. % Inhibition curves by fitting to a four parameter logistic curve.

[1] = test system: Cdc7 (pS53MCM2 levels in SW48 cells); assay: Cdc7 Cell Pharmacodynamics Assay Method 3: pS53MCM2 levels in SW48 cells, 6 hours; format: cell-based; details: for EC50: Homo sapiens, SW48, 6 h, read-out: Biomarker Method 3 (pEC50) (converted)
Text: This protocol describes a method to investigate the inhibition of Cdc7 activity by measuring pS53MCM2 levels in cells, after treatment with compounds.
• SW48 cells • RPMI 1640 (Sigma, R5886) • 10% FCS (Sera Laboratories International Ltd, EU000F Batch:108005) • 100× L-Glutamine (Invitrogen, 25030-024) • D-Glucose Solution (10%) (Sigma, G8644) • HEPES Buffer Solution (Sigma, 83264) • Sodium Pyruvate (Sigma, S8636) • PBS (Fisger, BP399-4) • Trypsin/EDTA (Invitrogen 25300-054) • 2% BSA in PBS • Cell Extraction Buffer (Invitrogen FNN0011) • Protease inhibitor cocktail (Sigma P-2714) • PMSF 0.3M stock in DMSO (Sigma P7626) • Antibody-rabbit pMCM2 Ser53 (Bethyl #A300-756A) • Antibody-goat MCM2 (Bethyl #A300-122A) • Antibody-goat Anti Rabbit IgG HRP (Perbio Science UK Ltd 31462) • SuperSignal ELISA Pico Chemiluminescent Substrate (Perbio Science UK Ltd 37070) Method • Plate 30,000 SW48 cells per well in standard TC treated 96 well plate in 100 μL complete RPMI 1640 medium. • Allow cells to settle overnight in incubator set at 37° C. and 5% CO2. • Cell treatment: prepare a 384 well plate containing 80 μl PBS/well. The PBS should be at room temperature—to be referred to as intermediate plate. Transfer 2 μL of compound from mother plate to intermediate (daughter plate) 1:40 dilution, then 5 μL intermediate to cell (daughter) plate. • Once all cells are treated place the cells back to the incubator and incubate for 6 hours. • Dilute the capture antibody (total MCM2#A300-122A) 1 in 250 in the required volume of PBS (5 mL per assay plate, plus 5 mL for dead volume) and add 50 μL to each well of a Hybond plate. Seal the plate and incubate at room temperature for a minimum of 2 hours. • Defrost aliquot of Invitrogen Cell Extraction Buffer (FNN0011) on ice and supplement with appropriate volume of both Sigma protease inhibitor cocktail (P-2714) and PMSF (final conc 1 mM from a 1 M stock in DMSO). • After the 6 hour cell treatment time, tap out the media from the assay plates and place them in the −80° C. freezer for at least 5 minutes. • Remove plates from freezer and add 20 μL of ice cold complete lysis buffer, with the multidrop. Incubate cells for 30 minutes at 4° C. • Add 80 μL per well 2% BSA. • Flick out the remaining liquid from the capture plate and transfer 80 μL from the lysis plate to the same wells in the capture/ELISA plate, using the Biomek. Cover with plate seal and incubate plates overnight at 4° C. • Wash plates with PBS, remove any residual remaining liquid and add 50 μL per well of pMCM2 Ser53 antibody (#A300-756A) diluted 1 in 100 in 2% BSA. Cover plate and incubate at room temperature for 2 hours with gentle shaking. • Wash plates with PBS, remove any residual remaining liquid and Incubate with 50 μL goat anti rabbit antibody (1 in 800 dilution in 2% BSA), for 1 hour at room temperature. • Wash plates with PBS, remove any residual remaining liquid and add 50 μL mixed SuperSignal Pico substrate. • Incubate each plate for 5 minutes at room temperature shielding the plates from direct light (with a cover plate). Read plates with the luminescent detection.

| IC50 (Cdc7/ASK) [nM] | Biomarker Method 3 (pEC50) ([1]; hydrochloride) | Biomarker Method 3 (pEC50) [1] | EC50 [1] [nM] | SMILES |
| --- | --- | --- | --- | --- |
| 7.94 | 5.88 |  |  | O=c1[nH]c(-c2ccnc(F)c2)nc(N2CCNCC(F)C2)c1Cl (single isomer, unassigned) [Compound 379, 5-chloro-4-(6-fluoro-1,4-diazepan-1-yl)-2-(2-fluoro-4-pyridyl)-1H-pyrimidin-6-one hydrochloride] |
| 3.98 | 6.70 |  |  | O=c1[nH]c(-c2ccnc(F)c2)nc(N2CCNCC(F)C2)c1Cl (single isomer, unassigned) [Compound 380, 5-chloro-4-(6-fluoro-1,4-diazepan-1-yl)-2-(2-fluoro-4-pyridyl)-1H-pyrimidin-6-one hydrochloride] |
| 70.8 | 5.32 |  |  | CC(C)(F)C1CN(c2nc(-c3ccnc(F)c3)[nH]c(=O)c2Cl)CCN1 (single isomer, unassigned) [Compound 381, 5-chloro-4-[3-(1-fluoro-1-methyl-ethyl)piperazin-1-yl]-2-(2-fluoro-4-pyridyl)-1H-pyrimidin-6-one hydrochloride] |
| 11.7 | 6.16 |  |  | CC(C)(F)C1CN(c2nc(-c3ccnc(F)c3)[nH]c(=O)c2Cl)CCN1 (single isomer, unassigned) [Compound 382, 5-chloro-4-[3-(1-fluoro-1-methyl-ethyl)piperazin-1-yl]-2-(2-fluoro-4-pyridyl)-1H-pyrimidin-6-one hydrochloride] |
| 4.47 |  | 6.67 |  | Cl.O=c1[nH]c(-c2ccnc(F)c2)nc(N2CCNCC2C(F)(F)F)c1Cl (single isomer, unassigned) [Compound 383] |
| 42.7 |  | 5.33 |  | Cl.O=c1[nH]c(-c2ccnc(F)c2)nc(N2CCNCC2C(F)(F)F)c1Cl (single isomer, unassigned) [Compound 384] |
| 6.03 |  | 6.51 |  | Cl.O=c1[nH]c(-c2ccncc2)nc(N2CCNCC2C(F)(F)F)c1Cl (single isomer, unassigned) [Compound 387] |
| 91.2 |  | 5.29 |  | Cl.O=c1[nH]c(-c2ccncc2)nc(N2CCNCC2C(F)(F)F)c1Cl (single isomer, unassigned) [Compound 388] |
| 21.4 |  | 5.68 |  | Cl.O=c1[nH]c(-c2ccnc(F)c2)nc(N2CCNCC2C(F)F)c1Cl (single isomer, unassigned) [Compound 389] |
| 4.27 |  | 6.97 |  | Cl.O=c1[nH]c(-c2ccnc(F)c2)nc(N2CCNCC2C(F)F)c1Cl (single isomer, unassigned) [Compound 390] |
| 13.8 |  | 5.90 |  | Cl.O=c1[nH]c(-c2ccnc(F)c2)nc(N2CCNC(C3CC3)C2)c1Cl (single isomer, unassigned) [Compound 393] |
| 70.8 |  | 5.26 |  | Cl.O=c1[nH]c(-c2ccnc(F)c2)nc(N2CCNC(C3CC3)C2)c1Cl (single isomer, unassigned) [Compound 394] |
| 7.76 | 5.67 |  |  | C[C@H]1CN[C@@H](C(F)(F)F)CN1c1nc(-c2ccnc(F)c2)[nH]c(=O)c1Cl.Cl (single isomer, unassigned) [Compound 395, Cis-5-chloro-2-(2-fluoro-4-pyridyl)-4-[2-methyl-5-(trifluoromethyl)piperazin-1-yl]-1H-pyrimidin-6-one hydrochloride] |
| 135 | 5.11 |  |  | C[C@H]1CN[C@@H](C(F)(F)F)CN1c1nc(-c2ccnc(F)c2)[nH]c(=O)c1Cl.Cl (single isomer, unassigned) [Compound 396, Cis-5-chloro-2-(2-fluoro-4-pyridyl)-4-[2-methyl-5-(trifluoromethyl)piperazin-1-yl]-1H-pyrimidin-6-one hydrochloride] |
| 8.51 |  |  | 759 | O=c1[nH]c(-c2ccnc(F)c2)nc(N2CCNCC2C(F)(F)F)c1Cl (centres unmarked) [Compound 313, 5-chloro-2-(2-fluoro-4-pyridyl)-4-[2-(trifluoromethyl)piperazin-1-yl]-1H-pyrimidin-6-one hydrochloride] |
| 5.25 |  |  | 389 | O=c1[nH]c(-c2ccnc(F)c2)nc(N2CCNCC(F)C2)c1Cl (centres unmarked) [Compound 373] |
| 5.75 |  |  | 437 | O=c1[nH]c(-c2ccncc2)nc(N2CCNCC(F)(F)C2)c1Cl [Compound 374] |
| 7.41 |  |  | 1230 | O=c1[nH]c(-c2ccnc(F)c2)nc(N2CCNCC(C(F)(F)F)C2)c1Cl (centres unmarked) [Compound 375] |
| 5.5 |  |  | 141 | O=c1[nH]c(-c2ccnc(F)c2)nc(N2CCNCC2C(F)F)c1Cl (centres unmarked) [Compound 376] |
| 11.5 |  | 5.87 |  | Cl.O=c1[nH]c(-c2ccnc(F)c2)nc(N2CCNCC(C(F)(F)F)C2)c1Cl (centres unmarked) [Compound 385] |
| 5.62 |  | 6.00 |  | Cl.O=c1[nH]c(-c2ccnc(F)c2)nc(N2CCNCC(C(F)(F)F)C2)c1Cl (centres unmarked) [Compound 386] |
| 35.5 |  |  | 3550 | O=c1[nH]c(-c2ccncc2)nc(N2CCNCC2C(F)F)c1Cl (centres unmarked) [Compound 391] |
| 38.9 |  |  | 5750 | CC(F)(F)C1CNCCN1c1nc(-c2ccnc(F)c2)[nH]c(=O)c1Cl (centres unmarked) [Compound 392] |
| 12.6 |  |  | 1660 | O=c1[nH]c(-c2ccncc2F)nc(N2CCNCC(F)(F)C2)c1Cl [Compound 399, 5-chloro-4-(6,6-difluoro-1,4-diazepan-1-yl)-2-(3-fluoro-4-pyridyl)-1H-pyrimidin-6-one hydrochloride] |
| 5.75 |  |  | 195 | C[C@@H]1CNCCN1c1nc(-c2ccncc2F)[nH]c(=O)c1Cl [Compound 400] |
| 4.79 |  |  | 437 | O=c1[nH]c(-c2ccnc(Cl)c2)nc(N2CCNCC(F)(F)C2)c1Cl [Compound 401] |
| 9.33 |  |  | 708 | CN1CCN(c2nc(-c3ccnc(F)c3)[nH]c(=O)c2Cl)CC(F)(F)C1 [Compound 415, 5-chloro-4-(6,6-difluoro-4-methyl-1,4-diazepan-1-yl)-2-(2-fluoro-4-pyridyl)-1H-pyrimidin-6-one] |

| SMILES | IC50 (Cdc7/ASK) [nM] | Biomarker Method 3 (pEC50) ([1]; hydrochloride) | Biomarker Method 3 (pEC50) [1] | EC50 [1] [nM] |
| --- | --- | --- | --- | --- |
| O=c1[nH]c(-c2ccnc(F)c2)nc(N2CCNCC23CC3)c1Cl [Compound 377] | 4.37 |  |  | 148 |
